From patent US8372850B2, “Aminopyridines and aminopyrimidines useful as inhibitors of protein kinases” (Vertex Pharmaceuticals Incorporated, priority 2006, dated 2013)

Target: T1, GSK-3β(AA 1-420) (Homo sapiens, UniProt P49841)
T1 construct: GSK-3β(AA 1-420)
Experiment: GSK-3 Inhibition Assay (standard coupled enzyme system)
Type: biochemical
Conditions: 20 μM ATP, 300 μM peptide, 20 nM GSK-3β, 30° C.
Procedure: Compounds of the present invention were screened for their ability to inhibit GSK-3β(AA 1-420) activity using a standard coupled enzyme system (Fox et al., Protein Sci. 1998, 7, 2249). Reactions were carried out in a solution containing 100 mM HEPES (pH 7.5), 10 mM MgCl2, 25 mM NaCl, 300 μM NADH, 1 mM DTT and 1.5% DMSO. Final substrate concentrations in the assay were 20 μM ATP (Sigma Chemicals, St Louis, Mo.) and 300 μM peptide (American Peptide, Sunnyvale, Calif.). Reactions were carried out at 30° C. and 20 nM GSK-3β. Final concentrations of the components of the coupled enzyme system were 2.5 mM phosphoenolpyruvate, 300 μM NADH, 30 μg/ml pyruvate kinase and 10 μg/ml lactate dehydrogenase.
An assay stock buffer solution was prepared containing all of the reagents listed above with the exception of ATP and the test compound of the present invention. The assay stock buffer solution (175 μl) was incubated in a 96 well plate with 5 μl of the test compound of the present invention at final concentrations spanning 0.002 μM to 30 μM at 30° C. for 10 min. Typically, a 12-point titration was conducted by preparing serial dilutions (from 10 mM compound stocks) with DMSO of the test compounds of the present invention in daughter plates. The reaction was initiated by the addition of 20 μl of ATP (final concentration 20 μM). Rates of reaction were obtained using a Molecular Devices Spectramax plate reader (Sunnyvale, Calif.) over 10 min at 30° C. The Ki values were determined from the rate data as a function of inhibitor concentration.

T1 sequence (P49841 whole entry, species assumed, the tested form may be a part): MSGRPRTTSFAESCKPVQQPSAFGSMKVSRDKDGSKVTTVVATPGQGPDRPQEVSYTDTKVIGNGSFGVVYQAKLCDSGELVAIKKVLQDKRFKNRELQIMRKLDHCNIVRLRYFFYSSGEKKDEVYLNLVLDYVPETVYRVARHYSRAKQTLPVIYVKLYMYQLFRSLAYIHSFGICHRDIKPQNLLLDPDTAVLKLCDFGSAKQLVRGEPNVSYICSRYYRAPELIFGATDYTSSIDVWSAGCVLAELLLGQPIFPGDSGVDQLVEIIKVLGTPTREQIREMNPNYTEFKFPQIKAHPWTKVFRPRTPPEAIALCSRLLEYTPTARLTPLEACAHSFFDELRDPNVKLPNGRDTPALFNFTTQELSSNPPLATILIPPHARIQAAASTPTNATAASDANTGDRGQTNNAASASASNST

Q: With `OC1(C2CC2)CN(c2cc(Nc3n[nH]c4ncc(F)cc34)nc(-c3ccccc3Cl)n2)C1` [Compound I-11] as the molecule, how does the Ki read?
A: < 50 nM

Q: Which Ki does the source give for `Fc1cnc2[nH]nc(Nc3cc(N4CCC4)nc(-c4ccccc4Cl)n3)c2c1` [Compound I-3] here?
A: < 50 nM

Q: For `Cc1cc(Nc2cc(N3CC(F)(F)C3)nc(-c3ccccc3Cl)n2)n[nH]1` [Compound I-4], which Ki is on record?
A: 50 to 500 nM

Q: With `Cc1cc(Nc2cc(N3CCC3)nc(-c3ccccc3Cl)n2)n[nH]1` [Compound I-1, 6-(Azetidin-1-yl)-2-(2-chlorophenyl)-N-(5-methyl-1H-pyrazol-3-yl)pyrimidin-4-amine] as the molecule, how does the Ki read?
A: 50 to 500 nM

Q: Which Ki does the source give for `Cc1cc(Nc2cc(C3CNC3)nc(-c3ccccc3Cl)n2)n[nH]1` [Compound I-12, 6-(Azetidin-3-yl)-2-(2-chlorophenyl)-N-(5-methyl-1H-pyrazol-3-yl)pyrimidin-4-amine] here?
A: 50 to 500 nM

Q: Which Ki does the source give for `OC1(C2CC2)CN(c2cc(Nc3n[nH]c4ccc(F)cc34)nc(-c3ccccc3Cl)n2)C1` [Compound I-10] here?
A: 50 to 500 nM

Q: With `Cc1cnc(Nc2cc(N3CCC3)nc(-c3ccccc3Cl)n2)s1` [Compound I-2] as the molecule, how does the Ki read?
A: < 50 nM

Q: Which Ki does the source give for `Cc1cc(Nc2cc(N3CC(O)(C(C)(C)C)C3)nc(-c3ccccc3Cl)n2)n[nH]1` [Compound I-8] here?
A: 1000 to 5000 nM

Q: For `Cc1cc(Nc2cc(N3CC(F)(C4CC4)C3)nc(-c3ccccc3Cl)n2)n[nH]1` [Compound I-5], which Ki is on record?
A: 50 to 500 nM

Q: Which Ki does the source give for `Fc1cnc2[nH]nc(Nc3cc(N4CC(F)(C5CC5)C4)nc(-c4ccccc4Cl)n3)c2c1` [Compound I-9] here?
A: < 50 nM

Same assay, conditions: range printed with mixed units (500 nM to 1 uM); 20 μM ATP, 30° C.

Q: For `Cc1cc(Nc2cc(N3CC(C)(O)C3)nc(-c3ccccc3Cl)n2)n[nH]1` [Compound I-7], which Ki is on record?
A: 500 to 1000 nM

Q: With `Cc1cc(Nc2cc(N3CC(O)(C4CC4)C3)nc(-c3ccccc3Cl)n2)n[nH]1` [Compound I-6] as the molecule, how does the Ki read?
A: 500 to 1000 nM

Tested on: rat brains after transient middle cerebral artery occlusion (MCAO)
Experiment: not given
Conditions: cited from earlier work

Q: For “IGF-1: IGF-1 (insulin growth factor-1), a known GSK-3 inhibitor”, which infarct size is on record?
A: reduced infarct size
